# Measurements as given in patent US20250051293A1, “NOVEL OXADIAZOLE DERIVATIVE AND USE THEREOF” (CELROS BIOTECH, priority 2021, published 2025).
# Assays:
# [1] = system: human glioblast cell line U87; experiment: Glioblastoma cell growth inhibition, U87; assay type: cell-based; settings: 2 μM, starting 4 days after treatment
# Description: (§1) Cell growth experiments were performed to determine the effect of the compounds according to The present disclosure on the growth of brain tumor glioblast cells. Specifically, the rodent brain tumor glioblast cell line 7080 and the human glioblast cell line U87 were treated with the compound of Example 2 according to The present disclosure to determine the cell growth inhibitory effects, and the results are shown in FIG. 18.
# Tg−APP/PS1 animal models = experiment: Tg-APPswe/PS1dE9 Alzheimer's animal model; assay type: in vivo, mice
# Description: The Tg−APP/PS1 animal models were used to determine the effect of compounds of Examples according to The present disclosure on Alzheimer's disease. This animal models show amyloid plaque deposition as early as 6.5 months and severe cognitive impairment at 6 to 8 months. The Tg−APP/PS1 animal models were administered with vehicle or the Example compound (i.e., Example 2 was used) at 30 mg/kg or 10 mg/kg every other day from 6.5 to 8 months. All behavioral testing occurred between 7.5 and 8 months, and brain tissues for biopsy were obtained by perfusion after behavioral testing. To confirm amyloid beta plaques, the brain tissues obtained in the above part (1)_1) were incubated in 1% Thioflavin-S solution for 8 to 20 minutes and washed with ethanol and distilled water. The stained tissues were sectioned and the number of plaques or stained areas were quantified. To confirm the changes in astrocytes and microglia by administration of oxadiazole derivative compounds, immunostaining was performed using GFAP antibody, a marker for astrocytes, and Iba1 antibody, a marker for microglia. The novel object recognition (NOR) and novel location recognition (NLR) tests are behavioral assessments that evaluate memory based on the disparity in search time between a novel object or an object relocated to a new position compared to a familiar object. Each experimental animal was placed in a square box with two identical objects and allowed to familiarize for 10 minutes (familiarization #1). Ten minutes after the first familiarization was completed, the objects used in the first familiarization were returned to their original position and subjected to a second familiarization (familiarization #2). After 2 hours, only one of the objects used in familiarization was replaced with a novel object and placed in the same position and the exploration time of the familiar and novel objects (2 h NOR) was determined. After 15 minutes, the familiar object was repositioned, and the exploration time of both objects was checked (NLR). After 22 hours (24 hours after familiarization), the novel object and the familiar object were placed and the exploration time was determined (24 h NOR). water maze test is frequently used to assess memory functions such as memory formation, consolidation, and retrieval effects by assessing the time it takes for an experimental animal to find a platform beneath the water surface, relying on environmental cues. Therefore, the treatment effect on Alzheimer's disease was confirmed using the model used in the water maze test above. The passive avoidance test is a fear-motivated test mainly used to evaluate short-term or long-term memory in experimental animals. The passive avoidance test evaluates fear memory by utilizing the innate tendency of experimental animals to prefer dark areas and avoid bright areas, delivering an electric shock to the paw upon entry into a dark area, and measuring the time it takes for the animal to re-enter the dark area upon re-exposure to the same environment.
# [2] = system: rodent brain tumor glioblast cell line 7080; experiment: Glioblastoma cell growth inhibition, cell line 7080; assay type: cell-based; settings: all concentrations (0.5 μm, 1 μM, and 2 μM)
# Description: as §1
# BV2 cells = experiment: Microglia (BV2) migration, transwell; assay type: cell-based, mouse; settings: LPS 1 μg/ml, 24 hours, compound 10 μM
# Description: To determine the migration level of BV2 cells, 8 μm-sized transwells (35224, SPL) were used. 1×10^5 BV2 cells were seeded into the insertion transwells, and the lower wells were treated with the compound of Example 2 or Apocynin (NOX inhibitor) along with lipopolysaccharide (LPS, 1 μg/ml) as stimulus. After 24 hours of incubation, BV2 cells that migrated to the bottom of the insertion transwells were stained with crystal violet.
# U87 = experiment: Mouse model xenografted with brain tumor glioblastoma U87; assay type: in vivo, mice
# Description: To confirm the therapeutic effect on brain tumor glioblastoma, U87 (5×10^4), a human brain tumor cell line, was xenografted into the brains of mice to establish a brain tumor model, followed by oral administration of the drugs.
# Different experimental groups were evaluated for each compound.
# First, with respect to the compound of Example 1, the experimental groups were divided into Vehicle (n=3) and the compound of Example 1, 50 mg/kg (n=3) and the administered with the drug orally 5 times a week 20 days after U87 xenografting.
# With respect to the compound of Example 2, the experimental groups were divided into Vehicle (n=9), TMZ 5 mg/kg (Temozolomide, n=10, 2 times per week), the compound of Example 2, 50 mg/kg (n=8, 5 times per week), and combination (TMZ+the compound of Example 2, n=7), and began receiving the drug 20 days after U87 xenografting.
# [3] = parietal cortex, piriform cortex, and hippocampus
# [4] = Example 1 study: 50 mg/kg orally 5 times a week
SMILES,cell growth of human glioblast cell line U87 [1],exploration time for novel objects than familiar objects (2 h NOR) (Tg−APP/PS1 animal models; 30 mg/kg),exploration time for novel objects than familiar objects (24 h NOR) (Tg−APP/PS1 animal models; 30 mg/kg),exploration time for objects located in a novel location (NLR) (Tg−APP/PS1 animal models; 30 mg/kg),amyloid plaque deposition (Thioflavin-S staining) (Tg−APP/PS1 animal models; 30 mg/kg or 10 mg/kg every other day from 6.5 to 8 months),"water maze test, time required to locate platform (Tg−APP/PS1 animal models; five consecutive days of training)",activation of astrocytes (GFAP immunostaining) (Tg−APP/PS1 animal models; [3]),activation of microglia (Iba1 immunostaining) (Tg−APP/PS1 animal models; [3]),"passive avoidance test, time to enter the dark area (Tg−APP/PS1 animal models; post-shock, 24 to 120 hours)",glioma cell growth of glioblast cell line 7080 [2],LPS-induced increase in number of migrated BV2 cells (BV2 cells),"tumor growth rate (MRI) (U87; Example 2 study: Example 2 50 mg/kg 5 times per week, TMZ 5 mg/kg 2 times per week)","median survival time (U87; Example 2 study: Example 2 50 mg/kg 5 times per week, TMZ 5 mg/kg 2 times per week, from 20 days after xenografting, vehicle 42 days)",brain tumor growth (MRI) (U87; [4]),extension of median survival compared to the vehicle group (U87; [4]),"median survival (U87; Example 1 study: 50 mg/kg orally 5 times a week from 20 days after U87 xenografting, vehicle 31 days)"
"O=C(Nc1nnc(-c2ccccc2)o1)c1ccc(F)c(C(F)(F)F)c1 [Example 2, 4-fluoro-N-(5-phenyl-1,3,4-oxadiazol-2-yl)-3-(trifluoromethyl)benzamide]",cell growth inhibition was observed,significantly increase,remarkable increase,significant increase,highly significant ameliorative effect,memory acquisition ability equivalent to wild-type mice,effectively reduced,effectively reduced,fear memory retention comparable to that of wild-type animals,strongly inhibited,offset,inhibited the tumor growth rate,46 days,–,–,–
"O=C(Nc1nnc(-c2cccc(Cl)c2)o1)c1cc(F)cc(C(F)(F)F)c1 [Example 1, N-(5-(3-chlorophenyl)-1,3,4-oxadiazol-2-yl)-3-fluoro-5-(trifluoromethyl)benzamide]",–,–,–,–,–,–,–,–,–,–,–,–,–,inhibition of brain tumor growth,17 days,48 days
